Data taken from paper PMC10819888, “Benzimidazole-Based Derivatives as Apoptotic Antiproliferative Agents: Design, Synthesis, Docking, and Mechanistic Studies” (Molecules, 2024).

What was measured:
EGFR = EGFR (Homo sapiens, UniProt P00533); experiment: EGFR inhibitory assay
NCI-H460 = experiment: NCI-60 five-dose assay; type: cell-based, human; settings: NCI-H460 (Non-Small Cell Lung Cancer), 48 h
Melanoma subpanel = experiment: NCI-60 five-dose assay, subpanel; type: cell-based, human
PC-3 = experiment: NCI-60 five-dose assay; type: cell-based, human; settings: PC-3 (Prostate Cancer), 48 h
NCI-H23 = experiment: NCI-60 five-dose assay; type: cell-based, human; settings: NCI-H23 (Non-Small Cell Lung Cancer), 48 h
UO-31 = experiment: NCI-60 five-dose assay; type: cell-based, human; settings: UO-31 (Renal Cancer), 48 h
SN12C = experiment: NCI-60 five-dose assay; type: cell-based, human; settings: SN12C (Renal Cancer), 48 h
TK-10 = experiment: NCI-60 five-dose assay; type: cell-based, human; settings: TK-10 (Renal Cancer), 48 h
SK-MEL-28 = experiment: NCI-60 five-dose assay; type: cell-based, human; settings: SK-MEL-28 (Melanoma), 48 h
NCI/ADR-RES = experiment: NCI-60 five-dose assay; type: cell-based, human; settings: NCI/ADR-RES (Ovarian Cancer), 48 h
HCC-2998 = experiment: NCI-60 five-dose assay; type: cell-based, human; settings: HCC-2998 (Colon Cancer), 48 h
HL-60(TB) = experiment: NCI-60 five-dose assay; type: cell-based, human; settings: HL-60(TB) (Leukemia), 48 h
SNB-75 = experiment: NCI-60 five-dose assay; type: cell-based, human; settings: SNB-75 (CNS Cancer), 48 h
HS 578T = experiment: NCI-60 five-dose assay; type: cell-based, human; settings: HS 578T (Breast Cancer), 48 h
SF-295 = experiment: NCI-60 five-dose assay; type: cell-based, human; settings: SF-295 (CNS Cancer), 48 h
OVCAR-5 = experiment: NCI-60 five-dose assay; type: cell-based, human; settings: OVCAR-5 (Ovarian Cancer), 48 h
HOP-92 = experiment: NCI-60 five-dose assay; type: cell-based, human; settings: HOP-92 (Non-Small Cell Lung Cancer), 48 h
MDA-MB-435 = experiment: NCI-60 five-dose assay; type: cell-based, human; settings: MDA-MB-435 (Melanoma), 48 h
RPMI-8226 = experiment: NCI-60 five-dose assay; type: cell-based, human; settings: RPMI-8226 (Leukemia), 48 h
HCT-15 = experiment: NCI-60 five-dose assay; type: cell-based, human; settings: HCT-15 (Colon Cancer), 48 h
SK-MEL-2 = experiment: NCI-60 five-dose assay; type: cell-based, human; settings: SK-MEL-2 (Melanoma), 48 h
SK-MEL-5 = experiment: NCI-60 five-dose assay; type: cell-based, human; settings: SK-MEL-5 (Melanoma), 48 h
SW-620 = experiment: NCI-60 five-dose assay; type: cell-based, human; settings: SW-620 (Colon Cancer), 48 h
SF-268 = experiment: NCI-60 five-dose assay; type: cell-based, human; settings: SF-268 (CNS Cancer), 48 h
K-562 = experiment: NCI-60 five-dose assay; type: cell-based, human; settings: K-562 (Leukemia), 48 h
[1] = Homo sapiens, read-out: GI50 Conc. per Cell Line
[2] = Homo sapiens, read-out: LC50 (the source's name)

Chain of EGFR (P00533 669-1210): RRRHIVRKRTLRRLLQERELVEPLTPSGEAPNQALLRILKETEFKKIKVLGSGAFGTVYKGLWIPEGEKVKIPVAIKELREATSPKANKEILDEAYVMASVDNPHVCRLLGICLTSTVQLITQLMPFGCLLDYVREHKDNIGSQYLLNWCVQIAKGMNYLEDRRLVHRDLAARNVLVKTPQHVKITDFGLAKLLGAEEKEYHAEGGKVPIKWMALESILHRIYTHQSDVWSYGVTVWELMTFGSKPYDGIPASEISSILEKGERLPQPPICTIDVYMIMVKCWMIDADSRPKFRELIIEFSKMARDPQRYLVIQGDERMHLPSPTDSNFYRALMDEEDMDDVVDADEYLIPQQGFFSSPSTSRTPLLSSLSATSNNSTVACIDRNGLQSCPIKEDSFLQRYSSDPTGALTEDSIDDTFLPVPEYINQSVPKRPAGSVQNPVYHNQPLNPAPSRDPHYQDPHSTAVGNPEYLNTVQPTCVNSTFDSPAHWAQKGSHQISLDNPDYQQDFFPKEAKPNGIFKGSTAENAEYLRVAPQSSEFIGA

Question: Which IC50 (EGFR) does the source give for `O=C(NN=Cc1ccc([N+](=O)[O-])cc1)c1ccc2[nH]c(-c3ccc(Cl)cc3)nc2c1` [Compound 4c, N′-(4-Nitrobenzylidene)-2-(4-chlorophenyl)-1H-benzimidazole-5-carbohydrazide] here?
Answer: The IC50 was 0.11 ± 0.01 µM.

Question: And the GI50 (NCI-H460; [1])?
Answer: Its GI50 is 2.1 µM.

Question: And the TGI (NCI-H460)?
Answer: Its TGI is 4.49 µM.

Question: What about the GI50 (Melanoma subpanel; Homo sapiens, Melanoma, average sensitivity of all subpanel cell lines, read-out: GI50 Subpanel MID b) of the same compound?
Answer: Its GI50 is 2.87 µM.

Question: And the “GI50 Selectivity Ratio (MID a/MID b)” value (Melanoma subpanel; Melanoma subpanel)?
Answer: The value was 1.14.

Question: What about the GI50 (PC-3; [1]) of the same compound?
Answer: The GI50 was 0.42 µM.

Question: And the TGI (PC-3)?
Answer: Its TGI is 15.30 µM.

Question: And the GI50 (NCI-H23; [1])?
Answer: The GI50 was 1.85 µM.

Question: And the CC50 (NCI-H23; [2])?
Answer: The CC50 was 67.6 µM.

Question: What about the TGI (NCI-H23) of the same compound?
Answer: Its TGI is 11.50 µM.

Question: What about the GI50 (UO-31; [1]) of the same compound?
Answer: The GI50 was 6.05 µM.

Question: And the CC50 (UO-31; [2])?
Answer: The CC50 was greater than 100 µM.

Question: And the TGI (UO-31)?
Answer: Its TGI is 38.30 µM.

Question: And the GI50 (SN12C; [1])?
Answer: The GI50 was 3.14 µM.

Question: What about the CC50 (SN12C; [2]) of the same compound?
Answer: The CC50 was greater than 100 µM.

Question: What about the TGI (SN12C) of the same compound?
Answer: Its TGI is 18.10 µM.

Question: And the GI50 (TK-10; [1])?
Answer: The GI50 was 8.99 µM.

Question: And the CC50 (TK-10; [2])?
Answer: The CC50 was greater than 100 µM.

Question: And the TGI (TK-10)?
Answer: Its TGI is 40.23 µM.

Question: What about the GI50 (SK-MEL-28; [1]) of the same compound?
Answer: The GI50 was 2.6 µM.

Question: What about the CC50 (SK-MEL-28; [2]) of the same compound?
Answer: Its CC50 is 39 µM.

Question: And the TGI (SK-MEL-28)?
Answer: The TGI was 10.30 µM.

Question: And the GI50 (NCI/ADR-RES; [1])?
Answer: The GI50 was 12.6 µM.

Question: What about the CC50 (NCI/ADR-RES; [2]) of the same compound?
Answer: The CC50 was greater than 100 µM.

Question: What about the TGI (NCI/ADR-RES) of the same compound?
Answer: The TGI was greater than 100 µM.

Question: And the TGI (HCC-2998)?
Answer: The TGI was 4.81 µM.

Question: And the GI50 (HCC-2998; [1])?
Answer: Its GI50 is 1.48 µM.

Question: And the CC50 (HCC-2998; [2])?
Answer: Its CC50 is 28.1 µM.

Question: And the TGI (HL-60(TB))?
Answer: Its TGI is 5.73 µM.

Question: And the GI50 (HL-60(TB); [1])?
Answer: The GI50 was 0.797 µM.

Question: And the CC50 (HL-60(TB); [2])?
Answer: Its CC50 is greater than 100 µM.

Question: What about the GI50 (SNB-75; [1]) of the same compound?
Answer: The GI50 was 2.78 µM.

Question: And the CC50 (SNB-75; [2])?
Answer: The CC50 was greater than 100 µM.

Question: And the TGI (SNB-75)?
Answer: Its TGI is 18.00 µM.

Question: And the TGI (HS 578T)?
Answer: The TGI was 24.40 µM.

Question: And the GI50 (HS 578T; [1])?
Answer: Its GI50 is 3.58 µM.

Question: And the CC50 (HS 578T; [2])?
Answer: Its CC50 is greater than 100 µM.

Question: What about the GI50 (SF-295; [1]) of the same compound?
Answer: Its GI50 is 3.4 µM.

Question: And the CC50 (SF-295; [2])?
Answer: Its CC50 is 43.8 µM.

Question: What about the TGI (SF-295) of the same compound?
Answer: Its TGI is 13.10 µM.

Question: What about the GI50 (OVCAR-5; [1]) of the same compound?
Answer: Its GI50 is 4.43 µM.

Question: What about the CC50 (OVCAR-5; [2]) of the same compound?
Answer: Its CC50 is greater than 100 µM.

Question: And the TGI (OVCAR-5)?
Answer: The TGI was 37.80 µM.

Question: What about the TGI (HOP-92) of the same compound?
Answer: Its TGI is 7.52 µM.

Question: What about the GI50 (HOP-92; [1]) of the same compound?
Answer: The GI50 was 0.985 µM.

Question: And the GI50 (MDA-MB-435; [1])?
Answer: The GI50 was 3.57 µM.

Question: And the CC50 (MDA-MB-435; [2])?
Answer: The CC50 was 47.6 µM.

Question: And the TGI (MDA-MB-435)?
Answer: Its TGI is 12.20 µM.

Question: What about the GI50 (RPMI-8226; [1]) of the same compound?
Answer: Its GI50 is 0.461 µM.

Question: And the CC50 (RPMI-8226; [2])?
Answer: The CC50 was greater than 100 µM.

Question: What about the TGI (RPMI-8226) of the same compound?
Answer: The TGI was 2.41 µM.

Question: And the TGI (HCT-15)?
Answer: Its TGI is 13.30 µM.

Question: And the GI50 (HCT-15; [1])?
Answer: The GI50 was 2.6 µM.

Question: And the CC50 (HCT-15; [2])?
Answer: Its CC50 is greater than 100 µM.

Question: And the GI50 (SK-MEL-2; [1])?
Answer: The GI50 was 5.1 µM.

Question: What about the TGI (SK-MEL-2) of the same compound?
Answer: Its TGI is 21.90 µM.

Question: And the GI50 (SK-MEL-5; [1])?
Answer: Its GI50 is 2.11 µM.

Question: What about the CC50 (SK-MEL-5; [2]) of the same compound?
Answer: The CC50 was 12.8 µM.

Question: And the TGI (SK-MEL-5)?
Answer: Its TGI is 4.78 µM.

Question: And the GI50 (SW-620; [1])?
Answer: Its GI50 is 3.44 µM.

Question: What about the TGI (SW-620) of the same compound?
Answer: The TGI was 10.80 µM.

Question: And the GI50 (SF-268; [1])?
Answer: Its GI50 is 4.97 µM.

Question: And the CC50 (SF-268; [2])?
Answer: Its CC50 is greater than 100 µM.

Question: What about the TGI (SF-268) of the same compound?
Answer: Its TGI is 24.30 µM.

Question: And the GI50 (K-562; Homo sapiens, K562, read-out: GI50 Conc. per Cell Line)?
Answer: Its GI50 is 0.499 µM.

Question: What about the CC50 (K-562; Homo sapiens, K562, read-out: LC50 (the source's name)) of the same compound?
Answer: The CC50 was 54.6 µM.

Question: And the TGI (K-562)?
Answer: The TGI was 8.44 µM.
